What was measured:
Assay in all cases: relative viability (nuclei count vs DMSO), 5 days (fraction); higher = more cells survive
RAF265 + Tozasertib = compound: Cn1c(Nc2ccc(C(F)(F)F)cc2)nc2cc(Oc3ccnc(-c4ncc(C(F)(F)F)[nH]4)c3)ccc21 [RAF265] + Cc1cc(Nc2cc(N3CCN(C)CC3)nc(Sc3ccc(NC(=O)C4CC4)cc3)n2)n[nH]1 [Tozasertib] (partner 0.1 µM)
In short: (§1)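 Lung cancer cell lines were seeded in 1536-well plates and dosed by pin tool the next day, with either a single drug or a fixed anchor-drug dose combined with five library-drug doses (not always all listed) spaced in √10 steps. Five days later, one step fixed the cells and stained their nuclei (final 0.05% Triton X-100, 1% formaldehyde, 1 ug/ml Hoechst), and nuclei were counted on 4× images. Relative viability is the nuclei count in treated wells divided by the count in vehicle wells, and each value is the median of duplicate plates.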

Doramapimod + Pemetrexed = compound: Cc1ccc(-n2nc(C(C)(C)C)cc2NC(=O)Nc2ccc(OCCN3CCOCC3)c3ccccc23)cc1 [Doramapimod] + Nc1nc2[nH]cc(CCc3ccc(C(=O)N[C@@H](CCC(=O)O)C(=O)O)cc3)c2c(=O)[nH]1 [Pemetrexed] (partner 0.2 µM)
In short: as §1

RAF265 + Lapatinib = compound: Cn1c(Nc2ccc(C(F)(F)F)cc2)nc2cc(Oc3ccnc(-c4ncc(C(F)(F)F)[nH]4)c3)ccc21 [RAF265] + CS(=O)(=O)CCNCc1ccc(-c2ccc3ncnc(Nc4ccc(OCc5cccc(F)c5)c(Cl)c4)c3c2)o1 [Lapatinib] (partner 2 µM)
In short: as §1

RAF265 + Bortezomib = compound: Cn1c(Nc2ccc(C(F)(F)F)cc2)nc2cc(Oc3ccnc(-c4ncc(C(F)(F)F)[nH]4)c3)ccc21 [RAF265] + CC(C)C[C@H](NC(=O)[C@H](Cc1ccccc1)NC(=O)c1cnccn1)B(O)O [Bortezomib] (partner 0.002 µM)
In short: as §1

| Cell Line | relative viability (RAF265 + Tozasertib; first compound 0.01 µM) | relative viability (RAF265 + Tozasertib; first compound 0.03162 µM) | relative viability (RAF265 + Tozasertib; first compound 0.1 µM) | relative viability (RAF265 + Tozasertib; first compound 0.3162 µM) | relative viability (RAF265 + Tozasertib; first compound 1 µM) | relative viability (Doramapimod + Pemetrexed; first compound 0.02 µM) | relative viability (Doramapimod + Pemetrexed; first compound 0.06325 µM) | relative viability (Doramapimod + Pemetrexed; first compound 0.2 µM) | relative viability (Doramapimod + Pemetrexed; first compound 0.6325 µM) | relative viability (Doramapimod + Pemetrexed; first compound 2 µM) | relative viability (RAF265 + Lapatinib; first compound 0.01 µM) | relative viability (RAF265 + Lapatinib; first compound 0.03162 µM) | relative viability (RAF265 + Lapatinib; first compound 0.1 µM) | relative viability (RAF265 + Lapatinib; first compound 0.3162 µM) | relative viability (RAF265 + Lapatinib; first compound 1 µM) | relative viability (RAF265 + Bortezomib; first compound 0.01 µM) | relative viability (RAF265 + Bortezomib; first compound 0.03162 µM) | relative viability (RAF265 + Bortezomib; first compound 0.1 µM) | relative viability (RAF265 + Bortezomib; first compound 0.3162 µM) | relative viability (RAF265 + Bortezomib; first compound 1 µM) |
| --- | --- | --- | --- | --- | --- | --- | --- | --- | --- | --- | --- | --- | --- | --- | --- | --- | --- | --- | --- | --- |
| NCI-H2170 | 0.734 | 0.651 | 0.752 | 0.587 | 0.538 | 0.278 | 0.261 | 0.256 | 0.28 | 0.259 | 0.278 | 0.306 | 0.284 | 0.296 | 0.287 | – | – | – | – | – |
| HCC-366 | 0.137 | 0.165 | 0.138 | 0.0437 | 0.0369 | 0.147 | 0.197 | 0.212 | 0.186 | 0.178 | 1.03 | 1.08 | 1.23 | 1.02 | 1.05 | 1.11 | 1.02 | 1.06 | 1 | 0.985 |
| NCI-H2347 | 0.653 | 0.507 | 0.809 | 0.436 | 0.325 | 0.42 | 0.443 | 0.444 | 0.436 | 0.376 | 1.1 | 0.915 | 0.998 | 0.887 | 0.435 | 0.801 | 1.03 | 1.09 | 0.809 | 0.573 |
| COR-L 105 | 0.435 | 0.423 | 0.341 | 0.451 | 0.317 | 1.21 | 1.05 | 0.995 | 1.31 | 0.951 | 0.341 | 0.376 | 0.383 | 0.342 | 0.322 | 0.902 | 0.771 | 0.647 | 0.442 | 0.56 |
| 201T | 0.955 | 0.862 | 1.03 | 0.939 | 0.696 | 0.308 | 0.333 | 0.347 | 0.331 | 0.318 | 1.02 | 1.04 | 1.04 | 1.06 | 1.04 | 1.08 | 1.1 | 1.07 | 1.11 | 1.1 |
| NCI-H2126 | 0.905 | 0.844 | 0.826 | 0.881 | 0.607 | 0.69 | 0.667 | 0.605 | 0.667 | 0.642 | 0.765 | 0.732 | 0.718 | 0.756 | 0.662 | 1.05 | 1.1 | 1.13 | 1.14 | 0.926 |
| LC-2-ad | 0.529 | 0.459 | 0.507 | 0.356 | 0.335 | 0.268 | 0.291 | 0.297 | 0.28 | 0.289 | 0.906 | 1.03 | 0.813 | 0.654 | 0.208 | 0.959 | 0.998 | 0.927 | 0.668 | 0.452 |
| NCI-H2085 | 0.965 | 0.706 | 0.914 | 0.822 | 0.558 | 0.938 | 0.972 | 0.926 | 1.07 | 0.657 | 0.777 | 0.709 | 0.806 | 0.843 | 0.717 | 1.1 | 0.985 | 1.14 | 1.1 | 0.987 |
| NCI-H358 | 0.11 | 0.0915 | 0.0883 | 0.0935 | 0.0863 | 0.176 | 0.167 | 0.162 | 0.169 | 0.175 | 0.491 | 0.524 | 0.336 | 0.434 | 0.341 | – | – | – | – | – |
| H3255 | 0.553 | 0.54 | 0.605 | – | 0.476 | 0.577 | 0.56 | 0.562 | 0.559 | 0.525 | 0.254 | 0.248 | 0.26 | – | 0.17 | 0.901 | 0.776 | 1.06 | – | 0.696 |
| NCI-H2228 | 0.329 | 0.235 | 0.334 | 0.211 | 0.131 | 0.339 | 0.354 | 0.322 | 0.393 | 0.308 | 1.25 | 0.859 | 1.24 | 0.416 | 0.43 | 0.968 | 0.82 | 0.887 | 0.412 | 0.42 |
| CAL-12T | 0.392 | 0.308 | 0.364 | 0.306 | 0.172 | 1.02 | 1.08 | 1.25 | 1.22 | 0.947 | 0.68 | 0.653 | 0.825 | 0.598 | 0.449 | 1.06 | 0.834 | 0.836 | 0.476 | 0.64 |
| A-427 | 0.218 | 0.213 | 0.205 | 0.109 | 0.089 | 0.926 | 1 | 1 | – | 0.988 | 1.06 | 0.949 | 1.06 | 1.11 | 0.713 | 0.98 | 0.867 | 1 | 1.1 | 0.494 |
| HARA | 0.12 | 0.0972 | 0.13 | 0.0934 | 0.0806 | 0.246 | 0.234 | 0.266 | 0.314 | 0.225 | 0.889 | 0.752 | 0.633 | 0.493 | 0.421 | 1.12 | 1.1 | 1.1 | 0.809 | 0.801 |
| NCI-H1793 | 0.404 | 0.421 | 0.361 | – | 0.172 | 0.885 | 0.963 | 0.957 | 0.918 | 0.657 | 0.652 | 0.658 | 0.631 | 0.296 | 0.512 | – | – | – | – | – |
| NCI-H1623 | 0.507 | 0.474 | 0.475 | – | 0.392 | – | – | – | – | – | – | – | – | – | – | – | – | – | – | – |
| NCI-H2009 | 0.758 | 0.721 | 0.745 | 0.809 | 0.476 | 1.03 | 1.04 | 1.06 | 1.01 | 1 | 1.01 | 0.941 | 0.85 | 0.885 | 0.691 | 1.05 | 0.981 | 0.905 | 0.899 | 0.657 |
